In patent publication US12157730B2, “Heteroaryl derivative, method for producing same, and pharmaceutical composition comprising same as effective component” (VORONOI INC., priority 2019, dated 2024):

Target: T1, Ba/F3 cell EGFR Exon20 ins NPH (Homo sapiens, UniProt P00533, INS773NPH)
T1 construct: expressed in transfected cells; host or cells: Ba/F3
Assay: Ba/F3 cell proliferation suppression, EGFR Exon20 ins NPH
Assay type: cell-based
Details: GI50 class; Ba/F3 cell line with NPH inserted at Exon20 of EGFR; 72 hours
Outline: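 Growth suppression determined as GI50 following 72 h exposure across 12 concentrations up to 50 um, with viability by luminescent ATP assay (CellTiter-Glo).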

SMILES	Ba/F3 (NPH) Activity
C=CC(=O)Nc1cc(Nc2cc(N3OCC[C@@H]3c3ccc(Cl)cc3)ncn2)c(OC)cc1N1CCC(N2CCN(C(C)=O)CC2)CC1 [compound 806, N-(2-(4-(4-acetylpiperazine-1-yl)piperidine-1-yl)-5-((6-((R)-3-(4-chlorophenyl)isoxazolidine-2-yl)pyrimidine-4-yl)amino)-4-methoxyphenyl) acrylamide]	A (GI50 < 50 nM)
C=CC(=O)Nc1cc(Nc2cc(N3OCC[C@@H]3c3cccc(Cl)c3)ncn2)c(OC)cc1N1CC[C@@H](N2CCOCC2)C1 [compound 465, N-(5-((6-((R)-3-(3-chlorophenyl)isoxazolidine-2-yl)pyrimidine-4-yl)amino)-4-methoxy-2-((R)-3-morpholinopyrolidine-1-yl)phenyl)acrylamide]	A (GI50 < 50 nM)
C=CC(=O)Nc1cc(Nc2cc(N3OCC[C@@H]3c3cc(F)ccc3F)ncn2)c(OC)cc1N1CCC(N2C[C@@H](C)N(CC)[C@@H](C)C2)CC1 [compound 841, N-(5-((6-((R)-3-(2,5-difluorophenyl)isoxazolidine-2-yl)pyrimidine-4-yl)amino)-2-(4-((3S,5R)-4-ethyl-3,5-dimethylpiperazine-1-yl)piperidine-1-yl)-4-methoxyphenyl) acrylamide]	A (GI50 < 50 nM)
C=CC(=O)Nc1cc(Nc2cc(N3OCC[C@@H]3c3cccc(C)c3F)ncn2)c(OC)cc1N1CCC(N2CCN(C3CCC3)CC2)CC1 [Example 78, N-(2-(4-(4-cyclobutylpiperazine-1-yl)piperidine-1-yl)-5-((6-((R)-3-(2-fluoro-3-methylphenyl)isoxazolidine-2-yl)pyrimidine-4-yl)amino)-4-methoxyphenyl) acrylamide]	A (GI50 < 50 nM)
C=CC(=O)Nc1cc(Nc2cc(N3OCC[C@@H]3c3cccc4ccccc34)ncn2)c(OC)cc1N1CCC(N2C[C@@H](C)O[C@@H](C)C2)CC1 [compound 491, N-(2-(4-((2S,6R)-2,6-dimethylmorpholino)piperidine-1-yl)-4-methoxy-5-((6-((R)-3-(naphthalene-1-yl)isoxazolidine-2-yl)pyrimidine-4-yl)amino)phenyl)acrylamide]	B (50 nM ≤ GI50 < 500 nM)
C=CC(=O)Nc1cc(Nc2cc(N3OCC[C@@H]3c3cc(F)cc(F)c3)ncn2)c(OC)cc1N1CC(N2CCN(C3CC3)CC2)C1 [compound 588, N-(2-(3-(4-cyclopropylpiperazine-1-yl)azetidine-1-yl)-5-((6-((R)-3-(3,5-difluorophenyl)isoxazolidine-2-yl)pyrimidine-4-yl)amino)-4-methoxyphenyl) acrylamide]	B (50 nM ≤ GI50 < 500 nM)
C=CC(=O)Nc1cc(Nc2cc(N3OCC[C@@H]3c3ccc(F)c(Cl)c3F)ncn2)c(OC)cc1N1CCC(N2CCN(C)CC2)CC1 [compound 605, N-(5-((6-((R)-3-(3-chloro-2,4-difluorophenyl)isoxazolidine-2-yl)pyrimidine-4-yl)amino)-4-methoxy-2-(4-(4-methylpiperazine-1-yl)piperidine-1-yl)phenyl) acrylamide]	A (GI50 < 50 nM)
C=CC(=O)Nc1cc(Nc2cc(N3OCC[C@@H]3c3c(F)ccc(F)c3F)ncn2)c(OC)cc1N1CCC(N2CCN(C3CC3)CC2)CC1 [Example 169, N-(2-(4-(4-cyclopropylpiperazine-1-yl)piperidine-1-yl)-4-methoxy-5-((6-((R)-3-(2,3,6-trifluorophenyl)isoxazolidine-yl)pyrimidine-4-yl)amino)phenyl)acrylamide]	A (GI50 < 50 nM)
C=CC(=O)Nc1cc(Nc2cc(N3OCC[C@@H]3c3cccc(C)c3F)ncn2)c(OC)cc1N1CCN(C2COC2)CC1 [compound 908, N-(5-((6-((R)-3-(2-fluoro-3-methylphenyl)isoxazolidine-2-yl)pyrimidine-4-yl)amino)-4-methoxy-2-(4-(oxetane-3-yl)piperazine-1-yl)phenyl) acrylamide]	A (GI50 < 50 nM)
C=CC(=O)Nc1cc(Nc2cc(N3OCC[C@@H]3c3cccc(Cl)c3F)ncn2)c(OC)cc1N1CCN(C)CC1 [compound 789, N-(5-((6-((R)-3-(3-chloro-2-fluorophenyl)isoxazolidine-2-yl)pyrimidine-4-yl)amino)-4-methoxy-2-(4-methylpiperazine-1-yl)phenyl)acrylamide]	A (GI50 < 50 nM)
C=CC(=O)Nc1cc(Nc2cc(N3OCC[C@@H]3c3cc(F)cc(Cl)c3)ncn2)c(OC)cc1N1CCC(N2CCN(C3CC3)[C@@H](C)C2)CC1 [Example 157, N-(5-((6-((R)-3-(3-chloro-5-fluorophenyl)isoxazolidine-2-yl)pyrimidine-4-yl)amino)-2-(4-((S)-4-cyclopropyl-3-methylpiperazine-1-yl)piperidine-1-yl)-4-methoxyphenyl) acrylamide]	A (GI50 < 50 nM)
C=CC(=O)Nc1cc(Nc2cc(N3OCC[C@@H]3c3ccc(Cl)c(Cl)c3)ncn2)c(OC)cc1N1C[C@H]2C[C@@H]1CO2 [compound 671, N-(2-((1R,4R)-2-oxa-5-azabicyclo[2.2.1]heptane-5-yl)-5-((6-((R)-3-(3,4-dichlorophenyl)isoxazolidine-2-yl)pyrimidine-4-yl)amino)-4-methoxyphenyl) acrylamide]	A (GI50 < 50 nM)
C=CC(=O)Nc1cc(Nc2cc(N3OCC[C@@H]3c3ccc(F)cc3F)ncn2)c(OC)cc1N1CCOCC1 [compound 325, N-(5-((6-((R)-3-(2,4-difluorophenyl)isoxazolidine-2-yl)pyrimidine-4-yl)amino)-4-methoxy-2-morpholinophenyl) acrylamide]	A (GI50 < 50 nM)
C=CC(=O)Nc1cc(Nc2cc(N3OCC[C@@H]3c3ccc(F)c(F)c3F)ncn2)c(OC)cc1N1CCC(N2CCC(N(C)C)CC2)CC1 [compound 656, N-(2-(4-(dimethylamino)-[1,4'-bipiperidine]-1'-yl)-4-methoxy-5-((6-((R)-3-(2,3,4-trifluorophenyl)isoxazolidine-2-yl)pyrimidine-4-yl)amino)phenyl)acrylamide]	B (50 nM ≤ GI50 < 500 nM)
C=CC(=O)Nc1cc(Nc2cc(N3OCC[C@@H]3Cc3cccc(Cl)c3F)ncn2)c(OC)cc1N1CCC(N2CCN(C3CC3)[C@H](C)C2)CC1 [compound 1019, N-(5-((6-((S)-3-(3-chloro-2-fluorobenzyl)isoxazolidine-2-yl)pyrimidine-4-yl)amino)-2-(4-((R)-4-cyclopropyl-3-methylpiperazine-1-yl)piperidine-1-yl)-4-methoxyphenyl) acrylamide]	A (GI50 < 50 nM)
C=CC(=O)Nc1cc(Nc2cc(N3OCC[C@@H]3c3ccc(Cl)c(F)c3)ncn2)c(OC)cc1N1CCC(N2CCN(C3COC3)CC2)CC1 [Example 83, N-(5-((6-((R)-3-(4-chloro-3-fluorophenyl)isoxazolidine-2-yl)pyrimidine-4-yl)amino)-4-methoxy-2-(4-(4-(oxetane-3-yl)piperazine-1-yl)piperidine-1-yl)phenyl)acrylamide]	A (GI50 < 50 nM)
C=CC(=O)Nc1cc(Nc2cc(N3OCC[C@@H]3c3cccc(Cl)c3)ncn2)c(OC)cc1N1CCN(C(C)=O)CC1 [compound 464, N-(2-(4-acetylpiperazine-1-yl)-5-((6-((R)-3-(3-chlorophenyl)isoxazolidine-2-yl)pyrimidine-4-yl)amino)-4-methoxyphenyl) acrylamide]	A (GI50 < 50 nM)
C=CC(=O)Nc1cc(Nc2cc(N3OCC[C@@H]3c3cc(F)ccc3F)ncn2)c(OC)cc1N1C[C@@H](C)N(CC)[C@@H](C)C1 [compound 878, N-(5-((6-((R)-3-(2,5-difluorophenyl)isoxazolidine-2-yl)pyrimidine-4-yl)amino)-2-((3S,5R)-4-ethyl-3,5-dimethylpiperazine-1-yl)-4-methoxyphenyl) acrylamide]	A (GI50 < 50 nM)
C=CC(=O)Nc1cc(Nc2cc(N3OCC[C@@H]3c3c(F)ccc(F)c3F)ncn2)c(OC)cc1N1CC[C@@H](N(C)C)C1 [compound 630, N-(2-((R)-3-(dimethylamino)pyrolidine-1-yl)-4-methoxy-5-((6-((R)-3-(2,3,6-trifluorophenyl)isoxazolidine-2-yl)pyrimidine-4-yl)amino)phenyl)acrylamide]	B (50 nM ≤ GI50 < 500 nM)
C=CC(=O)Nc1cc(Nc2cc(N3OCC[C@@H]3c3cc(F)cc(F)c3)ncn2)c(OC)cc1N1CC[C@@H](CN(C)C)C1 [compound 625, N-(5-((6-((R)-3-(3,5-difluorophenyl)isoxazolidine-2-yl)pyrimidine-4-yl)amino)-2-((S)-3-((dimethylamino)methyl)pyrolidine-1-yl)-4-methoxyphenyl) acrylamide]	A (GI50 < 50 nM)
C=CC(=O)Nc1cc(Nc2cc(N3OCC[C@@H]3c3ccc(F)cc3F)ncn2)c(OC)cc1N1CCN(C2CC2)CC1 [compound 344, N-(2-(4-cyclopropylpiperazine-1-yl)-5-((6-((R)-3-(2,4-difluorophenyl)isoxazolidine-2-yl)pyrimidine-4-yl)amino)-4-methoxyphenyl) acrylamide]	A (GI50 < 50 nM)
C=CC(=O)Nc1cc(Nc2cc(N3OCC[C@H]3c3c(F)cccc3F)ncn2)c(OC)cc1N1CCN(C)CC1 [compound 307, N-(5-((6-((S)-3-(2,6-difluorophenyl)isoxazolidine-2-yl)pyrimidine-4-yl)amino)-4-methoxy-2-(4-methylpiperazine-1-yl)phenyl)acrylamide]	C (500 nM ≤ GI50 < 5000 nM)
C=CC(=O)Nc1cc(Nc2cc(N3OCC[C@@H]3c3cccc(F)c3)ncn2)c(OC)cc1N1CCN(C2COC2)CC1 [compound 792, N-(5-((6-((R)-3-(3-fluorophenyl)isoxazolidine-2-yl)pyrimidine-4-yl)amino)-4-methoxy-2-(4-(oxetane-3-yl)piperazine-1-yl)phenyl) acrylamide]	A (GI50 < 50 nM)
